Test results as given in patent US20040224377A1, “Compositions and methods to quench light from optical reactions” (priority 2003, published 2004).

Tests used:
Type in all cases: biochemical
[1] = test system: horseradish peroxidase (HRP); assay: Quenching light from horseradish peroxidase/luminol chemiluminescent reaction (Example III, FIG. 4)
Experimental: 20 μl of 0.044 mg/ml horseradish peroxidase (HRP), prepared in KPO4, pH 6.5, was added to 100 μl of 50 mM NaHCO3, 2 μM H2O2+/−100 μM berberine hemisulfate. […] 100 μl of 10 mM Luminol (Sigma) in 55 mM NaOH was then added to initiate the chemiluminescent reaction and the luminescence was measured on a luminometer. Luminescence was captured at various times after reaction initiation.

Renilla luciferase = target: T1, Renilla luciferase (Renilla reniformis, UniProt P27652); assay: Selective quench of Renilla luciferase luminescent reaction (Example I); conditions: for Fold quench of Renilla luciferase: Luciferase Assay Reagent with 1% Tergitol NP-9, 200 μM coelenterazine hh methyl ether, 1 mM berberine hemisulfate or combinations, initial divided by residual luminescence
T1 sequence (P27652 1-311): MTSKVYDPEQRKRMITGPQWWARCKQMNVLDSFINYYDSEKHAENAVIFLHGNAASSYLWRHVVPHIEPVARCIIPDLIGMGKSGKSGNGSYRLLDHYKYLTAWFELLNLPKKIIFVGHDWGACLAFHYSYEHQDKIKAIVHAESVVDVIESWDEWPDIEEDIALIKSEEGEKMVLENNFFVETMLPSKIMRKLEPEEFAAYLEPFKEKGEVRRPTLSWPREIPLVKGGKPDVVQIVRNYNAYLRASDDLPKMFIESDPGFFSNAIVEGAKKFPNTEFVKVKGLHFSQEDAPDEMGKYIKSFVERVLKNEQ
Experimental: Each buffer was added to a vial of Luciferase Assay Substrate (pt. El 51, Promega Corporation) to make Luciferase Assay Reagent (LAR) plus the quenching agent(s). […] Luminescence was initiated by addition of 20 μl of enzyme solution to 100 μl of Renilla Luciferase Assay Reagent, and measured. […] Fold quench was calculated as the quotient of the initial Renilla luciferase luminescence divided by the residual Renilla luciferase luminescence.

firefly luciferase [2] = target: firefly luciferase (Photinus pyralis, UniProt P08659); assay: Effect of quench reagents on firefly luciferase luminescent reaction (FIGS. 1-3); conditions: luminescence normalized to value without the reagent
Experimental: To test the effect of coelenterazine hh methyl ether on a firefly luciferase luminescent reaction, a luciferase reagent was prepared (270 μM coenzyme A (Pharmacia), 530 μM ATP (Pharmacia), 20 mM Tricine pH 7.8 (Fisher), 1 mM magnesium carbonate (Sigma), 0.1 mM ETDA (Sigma), 2.7 mM magnesium sulfate (Sigma), and 33 mM dithiothreitol (Sigma)) with varying concentrations of beetle luciferin (Promega), both above and below the concentration required for luciferase saturation (940 μM, 470 μM, 235 μM and 117.5 μM, saturation occurs at about 470 μM). […] Luminescence from firefly luciferase was measured by adding 20 μl of firefly luciferase (5×10^−14 moles/reaction) (Promega Corp.) in 1× Cell Culture Lysis Reagent (Promega Corporation) containing 1 mg/ml bovine serum albumin (BSA) to 100 μl of the luciferase reagents. Luminescence was normalized to the value integrated in the absence of coelenterazine hh methyl ether.
To test the effect of Tergitol® NP-9 on the firefly luciferase luminescent reaction, Luciferase Assay Reagent (Promega Corporation) was prepared according to the manufacturer's instructions. […] Luminescence was integrated after adding 20 μl of firefly luciferase (2.5×10^−14 moles/reaction) in 150 mM HEPES pH 7.4 and 1 mg/ml gelatin, to 100 μl of reagent. Luminescence was normalized to the value integrated for no detergent. […]

firefly luciferase [3] = assay: Quenching phosphorescence from white luminometer plate, signal/background with firefly luciferase (Example IV); conditions: relative to phosphorescence S/B before dye
Experimental: (§1) Stocks of Amaranth (Aldrich, 120561), Benzopurpurin 4B (Aldrich # 22882), and Fluorescence Brightener 28 (Aldrich 475300) were prepared in DMSO (Sigma) at 100 μM. Luminometer plates (96-well) were purchased from Dynex Technologies. The luminometer plates were broken into pieces that would fit into single luminometer tubes (12 mm diameter) purchased from Promega Corporation. All experiments were performed in a lab under normal fluorescent lighting.
(§2) The experiment measured the signal/background ratio before and after the addition of colored compounds or DMSO. Luminescence measurements were taken from the empty luminescent tube in each experiment to quantitate background. A piece of white luminescent plate, 100 μl of Bright-Glo™ Reagent prepared according to the manufacturer's instructions (Promega Corporation), and 100 μl of Glo Lysis Buffer (Promega Corporation) were placed into the luminescent tube, and the luminescence was again measured. […] 2 μl of DMSO or one of the dyes in DMSO were then added to the tube, the sample was mixed, and the luminescence was measured a third time. This measurement captured the amount of luminescence emitted through the now-colored reagent or the reagent containing the DMSO carrier. Finally, 2 μl of luciferase was added to the tube, the sample was mixed, and the luminescence measured a final time. […]

[4] = test system: red click beetle luciferase; assay: Quenching phosphorescence from white luminometer plate, signal/background with red click beetle luciferase (Example IV); conditions: relative to phosphorescence S/B before dye
Experimental: as §1, §2

Sequence of firefly luciferase (Photinus pyralis, UniProt P08659) (P08659 whole entry): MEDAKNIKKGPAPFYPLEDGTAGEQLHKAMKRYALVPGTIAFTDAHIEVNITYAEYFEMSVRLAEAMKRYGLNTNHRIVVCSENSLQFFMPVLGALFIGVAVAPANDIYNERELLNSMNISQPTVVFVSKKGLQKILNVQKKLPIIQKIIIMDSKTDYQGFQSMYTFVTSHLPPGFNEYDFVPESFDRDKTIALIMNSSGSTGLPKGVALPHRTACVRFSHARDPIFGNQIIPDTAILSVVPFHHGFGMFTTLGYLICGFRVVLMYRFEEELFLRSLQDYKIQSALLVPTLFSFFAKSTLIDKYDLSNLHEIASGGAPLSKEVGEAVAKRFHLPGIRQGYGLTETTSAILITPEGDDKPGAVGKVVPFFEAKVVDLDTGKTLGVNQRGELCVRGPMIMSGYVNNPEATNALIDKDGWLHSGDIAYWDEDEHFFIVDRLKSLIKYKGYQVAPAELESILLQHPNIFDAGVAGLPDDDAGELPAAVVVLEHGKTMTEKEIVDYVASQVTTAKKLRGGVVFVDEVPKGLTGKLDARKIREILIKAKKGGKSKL

**Q.** berberine hemisulfate was tested. Which “effect on horseradish peroxidase chemiluminescence (FIG. 4)” value [1] did it give?
**A.** quenches

**Q.** And the “quench of horseradish peroxidase-dependent chemiluminescence” value ([1]; 100 μM berberine hemisulfate, luminol)?
**A.** over 500 fold

**Q.** And the “Fold quench of Renilla luciferase” value (Renilla luciferase)?
**A.** 46 fold

**Q.** What about the “effect on firefly luciferase luminescence” value (firefly luciferase [2]) of the same compound?
**A.** not affected

**Q.** With `O=S(=O)([O-])c1cc(Nc2nc(Nc3ccccc3)nc(N(CCO)CCO)n2)ccc1/C=C/c1ccc(Nc2nc(Nc3ccccc3)nc(N(CCO)CCO)n2)cc1S(=O)(=O)[O-].[Na+].[Na+]` [Fluorescence Brightener, Fluorescence Brightener 28] as the compound, how does the “S/B Improvement” value (firefly luciferase [3]) read?
**A.** 440%

**Q.** For `OCCN(CCO)c1nc(N2CCCCC2)c2nc(N(CCO)CCO)nc(N3CCCCC3)c2n1` [dipyridamole], which “quench of the Renilla luciferase luminescent reaction” value (Renilla luciferase; at 1 mM) is on record?
**A.** about 35 fold

**Q.** How did the “effect on firefly luciferase luminescence” value (firefly luciferase [2]) turn out when `COc1c(Cc2ccccc2)nc2c(Cc3ccccc3)nc(-c3ccccc3)cn12` [coelenterazine hh methyl ether, 2,8-dibenzyl-3-methoxy-6-phenyl-imidazo[1,2-a]pyrazine] was run?
**A.** not affected

**Q.** `Cc1cc(-c2ccc(N=Nc3cc(S(=O)(=O)[O-])c4ccccc4c3N)c(C)c2)ccc1N=Nc1cc(S(=O)(=O)[O-])c2ccccc2c1N.[Na+].[Na+]` [Benzopurpurin 4B] was tested. Which “S/B Improvement” value [4] did it give?
**A.** 4500%

**Q.** Which “Fold quench of Renilla luciferase” value (Renilla luciferase) does the source give for Tergitol NP-9 here?
**A.** 86.67 fold
